{
  "source": "paper PMC6508677",
  "about": "“Identification of druggable small molecule antagonists of the Plasmodium falciparum hexose transporter PfHT and assessment of ligand access to the glucose permeation pathway via FLAG-mediated protein engineering” (PLoS ONE, 2019)",
  "biological_target": "T1, FTPfHT (Plasmodium falciparum, UniProt Q7KWJ5)",
  "T1 sequence (Q7KWJ5 1-504)": "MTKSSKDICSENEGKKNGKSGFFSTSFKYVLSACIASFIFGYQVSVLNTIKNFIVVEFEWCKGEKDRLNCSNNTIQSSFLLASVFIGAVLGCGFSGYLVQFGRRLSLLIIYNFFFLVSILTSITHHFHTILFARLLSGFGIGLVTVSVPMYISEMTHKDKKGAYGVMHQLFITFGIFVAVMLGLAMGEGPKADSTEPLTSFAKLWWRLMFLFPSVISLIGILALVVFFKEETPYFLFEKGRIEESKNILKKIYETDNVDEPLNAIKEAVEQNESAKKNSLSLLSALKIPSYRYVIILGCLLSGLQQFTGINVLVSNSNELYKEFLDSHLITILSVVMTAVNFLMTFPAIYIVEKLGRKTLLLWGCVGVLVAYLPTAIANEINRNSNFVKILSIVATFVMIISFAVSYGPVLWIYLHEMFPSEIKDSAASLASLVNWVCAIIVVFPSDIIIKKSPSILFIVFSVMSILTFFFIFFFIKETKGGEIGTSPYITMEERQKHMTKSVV",
  "assay": "2-DG uptake by HEK293 cells overexpressing FLAG-tagged PfHT (FTPfHT)",
  "format": "cell-based",
  "parameters": "the 38–40 kDa band represents full length PfHT; expressed in transfected cells; host or cells: HEK293-FLIP (HEK293)",
  "details": "for remaining activity at 0.001 µM: concentration 0.001 µM, Expt 1-3",
  "excerpt": "Generation of HEK293 cells overexpressing PfHT and human GLUTs 1–4 were described elsewhere. Briefly, HEK293 cells were transfected with pcDNA3.1 FLII12Pglu-7006 (Addgene), containing the fluorescence resonance energy transfer (FRET) glucose sensor (HEK293-FLIP) and PfHT, human GLUT1 (hGLUT1), hGLUT2, hGLUT3, hGLUT4, hGLUT5 or hGLUT8 using Optifect (Life Technologies) according to manufacturer’s specifications. To increase retention of GLUT8 at the plasma membrane, the dileucine sorting signal E^7E^8XXXLL was modified to R^7R^8XXXLL as described in [17]. Stable transfectants were selected for G418 and hygromycin resistance to select for FRET sensor and hexose transporter, respectively. HEK293-FLIP cells were also used to generate cells stably transfected with FLAG-tagged PfHT (FTPfHT). FLAG tag ([…]) followed by a triple glycine linker and a tobacco etch virus (TEV) protease site (ENLYFQS) followed by a triple glycine linker was added to the N-terminus of PfHT via PCR [18] using Phusion Hot Start II High-Fidelity DNA Polymerase (Fisher Scientific). Single clones were selected by comparing their abilities to transport glucose as assayed via FRET and radiolabeled hexose uptake. In all cell lines, except for HEK293 cells overexpressing hGLUT1 and hGLUT5, native hGLUT1 was knocked down using shRNA as described elsewhere. Transcript levels of the individual GLUTs expressed in each cell line are as described in [13, 15] and in S1 Fig.\nGlucose uptake by P. falciparum was performed essentially as described. P. falciparum strain 3D7 was cultured in 100 mm tissue culture dishes (Techno Plastic Products) in a 2% suspension of human erythrocytes and RPMI 1640 medium until reaching > 7.5% parasitemia. Cells were pelleted via centrifugation and resuspended in RPMI 1640 medium. To determine the uptake of radiolabeled glucose into the parasite, parasites were isolated from infected erythrocytes by permeablization with saponin (0.05 w/v), followed by centrifugation, aspiration of supernatant and washing of the pellet 3X with saline solution (135 mM NaCl, 2 mM KCl, 25 mM HEPES, 0.2 mM glucose and 1 mM MgCl2; pH 7.1) to remove cellular debris. WU-1 or DMSO vehicle were added to 100 μl parasites (resuspended in saline) 5 min prior to the addition of 100 μl [^14C]2-DOG (0.2- μCi/ml final concentration). 2-DG uptake was stopped after 2 min by layering the entire reaction over 300 μl of an oil mixture (5:4 mix of dibutyl phthalate / dinonyl phthalate) in Eppendorf tubes and centrifuged at 15,850 × g for 2 mins. The ratio of the estimated intracellular concentration of radiolabel relative to the extracellular concentration were calculated as described. Uptake of radiolabeled hexose into HEK293 cells was measured in glucose-free HBSS as described previously. Briefly, cells were plated at 400,000 cells/well overnight at 37°C in 24-well plates pre-treated with PEI. After 30-min incubation at 37°C in glucose-free HBSS in the presence of vehicle or increasing concentrations of compound, 2-DG uptake was measured in glucose-free HBSS for 4 min at 37°C. Cultures were washed in ice-cold 1X PBS and lysed in 0.1% Triton X-100 in 1X PBS. Radiolabeled hexose uptake was determined by liquid scintillation counting (Ultima Gold, Thermo Fisher) and normalized to total protein per well. Uptake data are plotted as percent uptake relative to vehicle-treated cells. Kinetic analyses were performed using the indicated concentrations of substrate and WU-1, with quenching of uptake after 1 min incubation. Incubation times had been previously determined as being in the linear range of time-dependent radiolabeled hexose uptake (2 min for 2-DG uptake into freed parasites; 2 and 4 min for D-Frc and 2-DG uptake HEK cell lines, respectively). Data were fit by least squares nonlinear regression analysis using GraphPad Prism 6.0 software.",
  "key": {"[1]": {"details": "FTPfHT, 2-DG Uptake, average of Expt 1-3, read-out: AVE IC50"}, "[2]": {"details": "FTPfHT, 2-DG Uptake, single experiments Expt 1-3, read-out: IC50"}, "[3]": {"details": "HEK293, 4 min, FTPfHT, read-out: 2-DG Uptake AVE"}, "[4]": {"details": "IC50 for inhibition of 2-DG uptake, HEK293 cells overexpressing FTPfHT"}},
  "note": "Several values for one entry are separate records, joined by “and”; a condition that tells them apart may be missing. Equal entries are not always repeated. Where two headings read alike, the source gives them in different places.",
  "data": [
    {"smiles": "C=C1[C@@H](C)[C@H]2[C@H](Cc3ccccc3)NC(=O)[C@]23OC(=O)/C=C/[C@H](O)CCC[C@@H](C)C/C=C/[C@H]3[C@@H]1O", "note": "[CB, cytochalasin B]", "values": [
      {"measurement": "IC50", "setting": "[1]", "result": 29.9, "unit": "µM"},
      {"measurement": "IC50", "setting": "[2]", "result": "26.6 µM and 30.5 µM and 32.6 µM"},
      {"measurement": "remaining activity at 0.001 µM", "setting": "[3]", "result": 100, "unit": "%"},
      {"measurement": "remaining activity at 0.3906 µM", "setting": "HEK293, 4 min, FTPfHT, concentration 0.3906 µM, read-out: 2-DG Uptake AVE", "result": 97.8, "unit": "%"},
      {"measurement": "remaining activity at 0.7812 µM", "setting": "HEK293, 4 min, FTPfHT, concentration 0.7812 µM, read-out: 2-DG Uptake AVE", "result": 93.2, "unit": "%"},
      {"measurement": "remaining activity at 1.56 µM", "setting": "HEK293, 4 min, FTPfHT, concentration 1.56 µM, read-out: 2-DG Uptake AVE", "result": 95.4, "unit": "%"},
      {"measurement": "remaining activity at 3.125 µM", "setting": "HEK293, 4 min, FTPfHT, concentration 3.125 µM, read-out: 2-DG Uptake AVE", "result": 90, "unit": "%"},
      {"measurement": "remaining activity at 6.25 µM", "setting": "HEK293, 4 min, FTPfHT, concentration 6.25 µM, read-out: 2-DG Uptake AVE", "result": 81.9, "unit": "%"},
      {"measurement": "remaining activity at 12.5 µM", "setting": "HEK293, 4 min, FTPfHT, concentration 12.5 µM, read-out: 2-DG Uptake AVE", "result": 72.3, "unit": "%"},
      {"measurement": "remaining activity at 25 µM", "setting": "HEK293, 4 min, FTPfHT, concentration 25 µM, read-out: 2-DG Uptake AVE", "result": 56, "unit": "%"},
      {"measurement": "remaining activity at 50 µM", "setting": "HEK293, 4 min, FTPfHT, concentration 50 µM, read-out: 2-DG Uptake AVE", "result": 44.6, "unit": "%"},
      {"measurement": "remaining activity at 100 µM", "setting": "HEK293, 4 min, FTPfHT, concentration 100 µM, read-out: 2-DG Uptake AVE", "result": 32.2, "unit": "%"},
      {"measurement": "remaining activity at 200 µM", "setting": "HEK293, 4 min, FTPfHT, concentration 200 µM, read-out: 2-DG Uptake AVE", "result": 22.7, "unit": "%"},
      {"measurement": "remaining activity at 400 µM", "setting": "HEK293, 4 min, FTPfHT, concentration 400 µM, read-out: 2-DG Uptake AVE", "result": 12.9, "unit": "%"},
      {"measurement": "IC50", "setting": "[4]", "result": "29.9 ± 1.8", "unit": "µM"}
    ]},
    {"smiles": "Cc1ccc(S(=O)(=O)CCNC(=O)c2c(-c3c(Cl)cccc3Cl)noc2C)cc1", "note": "[WU-1, 3-(2,6-dichlorophenyl)-5-methyl-N-[2-(4-methylbenzenesulfonyl)ethyl]-1,2-oxazole-4-carboxamide]", "values": [
      {"measurement": "IC50", "setting": "[1]", "result": 19.5, "unit": "µM"},
      {"measurement": "IC50", "setting": "[2]", "result": "19.2 µM and 18.9 µM and 20.5 µM"},
      {"measurement": "remaining activity at 0.001 µM", "setting": "[3]", "result": 100, "unit": "%"},
      {"measurement": "remaining activity at 0.313 µM", "setting": "HEK293, 4 min, FTPfHT, concentration 0.313 µM, read-out: 2-DG Uptake AVE", "result": 95.9, "unit": "%"},
      {"measurement": "remaining activity at 0.625 µM", "setting": "HEK293, 4 min, FTPfHT, concentration 0.625 µM, read-out: 2-DG Uptake AVE", "result": 92.1, "unit": "%"},
      {"measurement": "remaining activity at 1.25 µM", "setting": "HEK293, 4 min, FTPfHT, concentration 1.250 µM, read-out: 2-DG Uptake AVE", "result": 81.9, "unit": "%"},
      {"measurement": "remaining activity at 2.5 µM", "setting": "HEK293, 4 min, FTPfHT, concentration 2.500 µM, read-out: 2-DG Uptake AVE", "result": 84.9, "unit": "%"},
      {"measurement": "remaining activity at 5 µM", "setting": "HEK293, 4 min, FTPfHT, concentration 5.0 µM, read-out: 2-DG Uptake AVE", "result": 80.6, "unit": "%"},
      {"measurement": "remaining activity at 10 µM", "setting": "HEK293, 4 min, FTPfHT, concentration 10.0 µM, read-out: 2-DG Uptake AVE", "result": 64.8, "unit": "%"},
      {"measurement": "remaining activity at 20 µM", "setting": "HEK293, 4 min, FTPfHT, concentration 20 µM, read-out: 2-DG Uptake AVE", "result": 52.4, "unit": "%"},
      {"measurement": "remaining activity at 40 µM", "setting": "HEK293, 4 min, FTPfHT, concentration 40 µM, read-out: 2-DG Uptake AVE", "result": 41.1, "unit": "%"},
      {"measurement": "remaining activity at 80 µM", "setting": "HEK293, 4 min, FTPfHT, concentration 80 µM, read-out: 2-DG Uptake AVE", "result": 29.3, "unit": "%"},
      {"measurement": "remaining activity at 160 µM", "setting": "HEK293, 4 min, FTPfHT, concentration 160 µM, read-out: 2-DG Uptake AVE", "result": 19.9, "unit": "%"},
      {"measurement": "remaining activity at 225 µM", "setting": "HEK293, 4 min, FTPfHT, concentration 225 µM, read-out: 2-DG Uptake AVE", "result": 17.1, "unit": "%"},
      {"measurement": "IC50", "setting": "[4]", "result": "19.5 ± 0.5", "unit": "µM"}
    ]}
  ]
}
